Experimental data reported in ChEMBL document CHEMBL1159307, “Theopederins K and L. Highly potent cytotoxic metabolites from a marine sponge Discodermia species” (J Nat Prod, 2002).

Key:
P388 = experiment: Cytotoxicity against mouse P388 cells; type: functional, cell-based
A549 = experiment: Cytotoxicity against human A549 cells; type: functional, cell-based

Structure (SMILES)	IC50 (P388)	IC50 (A549)
C=C1C[C@](OC)([C@H](O)C(=O)N[C@H]2OCO[C@H]3[C@@H]2O[C@H](CC(O)/C=C/C/C=C/C=C/C(=O)O)C(C)(C)[C@@H]3OC)O[C@H](C)[C@@H]1C (stereo partly specified) [THEOPEDERIN L]	7.3 nM	3.2 nM
C=C1C[C@](OC)([C@H](O)C(=O)N[C@H]2OCO[C@H]3[C@@H]2O[C@H](CC(/C=C/C/C=C/C=C/C(=O)O)OC)C(C)(C)[C@@H]3OC)O[C@H](C)[C@@H]1C (stereo partly specified) [THEOPEDERIN K]	0.1 nM	1.5 nM
C=C1C[C@](OC)([C@H](O)C(=O)N[C@H]2OCO[C@H]3[C@@H]2O[C@H](CC(/C=C/C/C=C/C=C/C(=O)OC)OC)C(C)(C)[C@@H]3OC)O[C@H](C)[C@@H]1C (stereo partly specified) [THEOPEDERIN K METHYL ESTER]	0.3 nM	0.8 nM
